Numbering of substitutions follows the chain as printed.
Assays:
[1] = target: T1, alkyltransferase P140A (Homo sapiens, UniProt P16455, P140A); assay: Inhibition of mutant alkyltransferase proteins, P140A; assay type: biochemical
T1 construct: made in house
T1 sequence (P16455 1-207 P140A): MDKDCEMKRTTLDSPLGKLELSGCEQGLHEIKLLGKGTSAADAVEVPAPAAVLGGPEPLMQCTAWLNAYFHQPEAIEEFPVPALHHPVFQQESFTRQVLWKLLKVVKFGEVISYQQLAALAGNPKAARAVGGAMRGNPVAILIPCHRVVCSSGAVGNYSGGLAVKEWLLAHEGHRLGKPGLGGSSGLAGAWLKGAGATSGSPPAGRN

[2] = target: T2, alkyltransferase P138A/P140A (Homo sapiens, UniProt P16455, P138A/P140A); assay: Inhibition of mutant alkyltransferase proteins, P138A/P140A; assay type: biochemical
T2 construct: made in house
T2 sequence (P16455 1-207 P138A/P140A): T1 sequence (P16455 1-207 P140A) with P138A

[3] = target: T3, alkyltransferase G156A (Homo sapiens, UniProt P16455, G156A); assay: Inhibition of mutant alkyltransferase proteins, G156A; assay type: biochemical
T3 construct: made in house
T3 sequence (P16455 1-207 G156A): T1 sequence (P16455 1-207 P140A) with A140P, G156A

[4] = tested on: mutant alkyltransferase; assay: Inactivation of mutant (resistant) alkyltransferase, overall statements; assay type: biochemical, human; settings: intracellular concentration, extrapolated from Table 6
[5] = target: T4, O^6-alkylguanine-DNA alkyltransferase (AGT) (Homo sapiens, UniProt P16455); set-up: endogenous in cells; host or cells: HT29 human colon tumor cells; settings: text b35, comparison value of Table 1; cited from earlier work
T4 sequence (P16455 1-207): T1 sequence (P16455 1-207 P140A) with A140P

[6] = tested on: HT-29 colon cancer cells; assay: Killing of HT-29 colon cancer cells by BCNU combined with AGT inactivators (colony formation); settings: for Colony Formation per 1000 cells: HT-29
Experimental: (§1) Cells were treated for 2 h with AGT inactivator prior to exposure to BCNU.

[7] = tested on: MCF-71 breast cancer cells; assay: Killing of MCF-71 breast cancer cells by BCNU combined with AGT inactivators (colony formation)
Experimental: as §1

[8] = tested on: DU-145 prostate cancer cells; assay: Killing of DU-145 prostate cancer cells by BCNU combined with AGT inactivators (colony formation)
Experimental: as §1

[9] = target: T5, purified human AGT (Homo sapiens, UniProt P16455); assay: Inactivation of purified human AGT; assay type: biochemical; settings: Table 2 footnotes; read-out: ED50 with purified human AGT
T5 sequence (P16455 1-207): T1 sequence (P16455 1-207 P140A) with A140P

[10] = Behaviour in solution at pH 13 (noted with UV spectra); assay type: physicochemical
[11] = target: T4, O^6-alkylguanine-DNA alkyltransferase (AGT); assay: AGT inactivation in intact HT29 cells; settings: for ratio of ED50 values in cell-free extracts/intact cells: HT29
Experimental: (§2) The data represent the dose of compound required to produce 50% inactivation in cell-free extracts upon incubation for 30 min or in cells upon incubation for 4 hr.

[12] = target: T4, O^6-alkylguanine-DNA alkyltransferase (AGT); assay: AGT inactivation in HT29 cell-free extract
Experimental: as §2

[13] = target: T6, Control alkyltransferase (Homo sapiens, UniProt P16455); assay: Inhibition of alkyltransferase proteins, control protein; assay type: biochemical; settings: concentration to inactivate 50% of the activity in 30 minutes, read-out: ED50 value
T6 sequence (P16455 1-207): T1 sequence (P16455 1-207 P140A) with A140P

| SMILES | EC50 [9] | stability at pH 13 [10] | melting point | EC50 [11] | EC50 [12] | Colony Formation per 1000 cells ([6]; inactivator 1 μM, BCNU 40 μM) | Colony Formation per 1000 cells ([8]; inactivator 1 μM, BCNU 40 μM) | other results |
| --- | --- | --- | --- | --- | --- | --- | --- | --- |
| Nc1nc(OCc2ccccc2)c2nc[nH]c2n1 [O^6-benzylguanine, reference compound] | – | – | – | – | – | 277 ± 25 per 1000 cells | 299 ± 18 per 1000 cells | increase in resistance to inactivation ([1]; P140A versus control protein): 20 fold; increase in resistance to inactivation ([2]; P138A/P140A versus control protein): 88 fold; increase in resistance to inactivation ([3]; G156A versus control protein): 240 fold; concentration needed to be effective at inactivating resistant alkyltransferase [4]: greater than 200 μM; ED50 value for inactivation of AGT in HT29 cell extracts [5]: 200 µM; Colony Formation per 1000 cells ([6]; inactivator 10 μM, BCNU 40 μM): 13 ± 6 per 1000 cells; Colony Formation per 1000 cells ([6]; inactivator 10 μM, BCNU none): 431 ± 33 per 1000 cells; Colony Formation per 1000 cells ([6]; inactivator […], BCNU 40 μM): 38 ± 15 per 1000 cells; Colony Formation per 1000 cells ([7]; inactivator 10 μM, BCNU 40 μM): 4 ± 2 per 1000 cells; Colony Formation per 1000 cells ([7]; inactivator 10 μM, BCNU none): 455 ± 63 per 1000 cells; Colony Formation per 1000 cells ([7]; inactivator […], BCNU 40 μM): 12 ± 6 per 1000 cells; Colony Formation per 1000 cells ([8]; inactivator 10 μM, BCNU 40 μM): 28 ± 5 per 1000 cells; Colony Formation per 1000 cells ([8]; inactivator 10 μM, BCNU none): 462 ± 68 per 1000 cells |
| Nc1nc(N)c(N=O)c(OCc2ccccc2)n1 [Compound 3d, 2,4-diamino-6-benzyloxy-5-nitrosopyrimidine] | – | – | – | 0.02 µM | 0.06 µM | 19 ± 4 per 1000 cells | 25 ± 4 per 1000 cells | EC50 [13]: 0.05 µM; EC50 ([1]; P140A, concentration to inactivate 50% of the activity in 30 minutes, read-out: ED50 value): 0.1 µM; EC50 ([2]; P138A/P140A, concentration to inactivate 50% of the activity in 30 minutes, read-out: ED50 value): 0.3 µM; EC50 ([3]; G156A, concentration to inactivate 50% of the activity in 30 minutes, read-out: ED50 value): 1 µM; concentration needed to be effective at inactivating resistant alkyltransferase [4]: greater than 5 μM; AGT inactivating activity in HT29 cell-free extracts, in words ([12]; comparison): the most active AGT inactivators tested to date; enhancement of BCNU cytotoxicity, in words ([6]; BCNU 40 μM, statement covers HT29, DU-145 and MCF-71 cells (Tables 3-5)): similarly effective at a 4-fold lower dose; Colony Formation per 1000 cells ([6]; inactivator […], BCNU 40 μM): <1 per 1000 cells; Colony Formation per 1000 cells ([7]; inactivator […], BCNU 40 μM): 2 ± 1 per 1000 cells |
| Cn1c(C(F)(F)F)nc2c(OCc3ccccc3)nc(N)nc21 [Compound 7, O^6-Benzyl-8-trifluoromethyl-9-methylguanine] | – | – | 86 to 89 °C | 0.4 µM | 2.5 µM | – | – | ratio of ED50 values in cell-free extracts/intact cells [11]: 6.3; AGT inactivating activity in intact HT29 cells, in words ([11]; comparison): significantly higher than their activity in cell-free extracts |
| CC(C)(C)C(=O)OCn1cnc2nc(N)nc(OCc3ccccc3)c21 [Compound 12, O^6-benzyl-7-(pivaloyloxymethyl)guanine] | > 100 µM | decomposes to O^6-benzylguanine | – | 0.3 µM | 9 µM | – | – | – |
| Nc1nc(OCc2ccccc2)c2nc(C(F)(F)F)[nH]c2n1 [Compound 1e, O^6-Benzyl-8-trifluoromethylguanine] | – | – | 214 to 216 °C (dec.) | 0.25 µM | 0.4 µM | – | – | ratio of ED50 values in cell-free extracts/intact cells [11]: 1.6 |

Continued, in another order:

| EC50 [9] | stability at pH 13 [10] | melting point | EC50 [11] | EC50 [12] | SMILES | Colony Formation per 1000 cells ([6]; inactivator 1 μM, BCNU 40 μM) | Colony Formation per 1000 cells ([8]; inactivator 1 μM, BCNU 40 μM) | other results |
| --- | --- | --- | --- | --- | --- | --- | --- | --- |
| > 100 µM | decomposes to O^6-benzyl-8-bromoguanine | 217 to 218 °C | 0.05 µM | 0.08 µM | CC(C)(C)C(=O)OCn1c(Br)nc2c(OCc3ccccc3)nc(N)nc21 [Compound 10b, O^6-Benzyl-8-bromo-9-(pivaloyloxymethyl)guanine] | – | – | – |
| 2 µM | decomposes to 8-aza-O^6-benzylguanine | 153 to 154 °C | 0.16 µM | 0.11 µM | CC(C)(C)C(=O)OCn1nnc2nc(N)nc(OCc3ccccc3)c21 [Compound 9, 8-Aza-O^6-benzyl-7-(pivaloyloxymethyl)guanine] | – | – | – |
| 4 µM | decomposes to 8-aza-O^6-benzylguanine | 119 to 120 °C | 0.23 µM | 0.28 µM | CC(C)(C)C(=O)OCn1nnc2c(OCc3ccccc3)nc(N)nc21 [Compound 8b, 8-Aza-O^6-benzyl-9-(pivaloyloxymethyl)guanine] | – | – | – |
| – | – | – | 0.06 µM | 0.07 µM | Nc1nc(OCc2ccccc2)c2nn[nH]c2n1 [Compound 2, 8-Aza-O^6-benzylguanine] | 423 ± 42 per 1000 cells | 248 ± 21 per 1000 cells | Colony Formation per 1000 cells ([6]; inactivator 10 μM, BCNU 40 μM): 2 ± 1 per 1000 cells; Colony Formation per 1000 cells ([6]; inactivator 10 μM, BCNU none): 537 ± 48 per 1000 cells; Colony Formation per 1000 cells ([7]; inactivator 10 μM, BCNU 40 μM): 2 ± 1 per 1000 cells; Colony Formation per 1000 cells ([7]; inactivator 10 μM, BCNU none): 483 ± 27 per 1000 cells; Colony Formation per 1000 cells ([8]; inactivator 10 μM, BCNU 40 μM): 28 ± 5 per 1000 cells; Colony Formation per 1000 cells ([8]; inactivator 10 μM, BCNU none): 452 ± 72 per 1000 cells |
